The record followed here is ChEMBL document CHEMBL1201862, “PubChem BioAssay data set” (2004).

The source made the active and inactive calls.

One test has as its target T1, Coagulation factor XII (Homo sapiens, UniProt P00748).
T1 sequence (P00748 whole entry): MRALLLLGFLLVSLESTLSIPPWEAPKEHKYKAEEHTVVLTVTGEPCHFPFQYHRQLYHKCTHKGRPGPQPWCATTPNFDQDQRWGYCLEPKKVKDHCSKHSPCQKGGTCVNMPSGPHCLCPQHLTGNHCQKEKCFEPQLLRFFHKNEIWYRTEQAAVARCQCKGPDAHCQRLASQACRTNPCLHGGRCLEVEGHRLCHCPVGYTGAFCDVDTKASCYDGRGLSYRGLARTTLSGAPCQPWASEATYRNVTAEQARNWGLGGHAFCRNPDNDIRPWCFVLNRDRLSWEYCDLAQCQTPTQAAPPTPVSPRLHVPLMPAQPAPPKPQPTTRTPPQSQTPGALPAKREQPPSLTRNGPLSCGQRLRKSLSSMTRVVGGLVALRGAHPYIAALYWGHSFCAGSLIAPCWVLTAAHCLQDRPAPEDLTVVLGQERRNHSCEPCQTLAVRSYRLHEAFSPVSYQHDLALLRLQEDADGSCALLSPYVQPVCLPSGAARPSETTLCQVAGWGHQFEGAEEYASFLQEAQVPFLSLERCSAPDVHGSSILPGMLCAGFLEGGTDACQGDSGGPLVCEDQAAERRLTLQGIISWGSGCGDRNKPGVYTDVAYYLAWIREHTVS
Description: activated coagulation factor XII inhibitor potency, concentration-effect curve, cell-free (AID 716). The test is classed as functional.

For another test, the system named is H4. Description: Luminescence Cell-Based Dose Response HTS to Identify Activators of 5'UTR Stem-Loop Driven Prion Protein mRNA Translation in H4 Neuroglioblastoma Cells. [Related pubchem assays: 1829 (Project Summary), 1814 (Primary HTS)]. The test is classed as functional. Particulars: Homo sapiens.
A short description of test [1]: Intein inhibitors as potential Tuberculosis drugs, a cytotoxicity screen. [Related pubchem assays (depositor defined):AID2221, AID2223, AID434968, AID435010, AID449749, AID449750, AID489010]. The class given is functional.
A short description of test [2]: CCR5-tropic HIV-1 fusion blockers – cell-based, CCR5-tropic Env, dose response (AID 2279). The test is classed as functional.
Test [3] addresses 26S proteasome non-ATPase regulatory subunit 14 (Homo sapiens, UniProt O00487). Description: inhibition of proteasome subunit RPN11 – biochemical, fluorescence polarization, uHTS hits, confirmation (AID 602368). The class given is functional. A general note: Fluorescence polarisation rises when a labelled molecule tumbles more slowly, as on binding a larger partner.
The test system of test [4] is Streptococcus sp. 'group A'. Description: Streptococcus pyogenes SK(-)GAS viability under kanamycin – luminescence, BacTiterGlo, confirmation, counter-screen for streptokinase expression inhibitor project, dose response (AID 1900). The test is classed as functional, organism-based. A general note: The purpose of a counterscreen is to sort out artefacts and off-target activity.

For test [5], the target named is 72 kDa type IV collagenase (Homo sapiens, UniProt P08253). Description: Dose Response validation of uHTS RPN11 inhibitor hits using a MMP-2 Fluorescence assay. The class given is functional.
The test system of the next test is Streptococcus. Kind of test: GAS UMAA2166 growth inhibition – luminescence, BacTiterGlo, counter-screen for streptokinase expression inhibitor project, dose response (AID 1915).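 Further: potency for reduction of bacterial viability or growth.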 The class given is functional, organism-based.
A further test deals with T2, Protein RecA (Mycobacterium tuberculosis, UniProt P9WHJ3).
T2 sequence (P9WHJ3 whole entry): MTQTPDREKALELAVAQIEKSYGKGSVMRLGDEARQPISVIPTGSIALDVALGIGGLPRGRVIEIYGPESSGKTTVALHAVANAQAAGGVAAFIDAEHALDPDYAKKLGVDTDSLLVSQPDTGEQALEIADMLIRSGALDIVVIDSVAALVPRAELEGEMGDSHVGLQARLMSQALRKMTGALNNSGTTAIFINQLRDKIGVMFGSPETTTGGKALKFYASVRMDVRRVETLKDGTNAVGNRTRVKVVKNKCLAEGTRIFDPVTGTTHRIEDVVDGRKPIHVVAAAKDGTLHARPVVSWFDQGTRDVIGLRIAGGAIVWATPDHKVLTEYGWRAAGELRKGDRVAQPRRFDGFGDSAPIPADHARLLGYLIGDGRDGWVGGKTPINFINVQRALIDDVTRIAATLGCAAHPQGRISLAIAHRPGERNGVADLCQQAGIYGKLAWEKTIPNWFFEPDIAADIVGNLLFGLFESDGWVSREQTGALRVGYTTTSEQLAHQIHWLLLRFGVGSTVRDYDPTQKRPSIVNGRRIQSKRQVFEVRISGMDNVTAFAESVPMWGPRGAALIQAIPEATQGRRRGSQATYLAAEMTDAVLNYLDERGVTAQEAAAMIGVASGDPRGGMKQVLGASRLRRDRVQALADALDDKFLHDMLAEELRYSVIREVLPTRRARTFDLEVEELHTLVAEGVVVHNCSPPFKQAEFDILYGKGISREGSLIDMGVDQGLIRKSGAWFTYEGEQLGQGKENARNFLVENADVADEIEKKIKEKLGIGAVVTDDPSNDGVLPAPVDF
Kind of test: Fluorescence Cell-Free Homogeneous Dose Retest to Identify Inhibitors of RecA-Intein Splicing Activity. [Related pubchem assays (depositor defined):AID2097, AID2223, AID489010, AID492950]. The class given is functional.

The target of test [6] is T3, Replicative DNA helicase DnaB (Mycobacterium tuberculosis, UniProt P9WMR3).
T3 sequence (P9WMR3 whole entry): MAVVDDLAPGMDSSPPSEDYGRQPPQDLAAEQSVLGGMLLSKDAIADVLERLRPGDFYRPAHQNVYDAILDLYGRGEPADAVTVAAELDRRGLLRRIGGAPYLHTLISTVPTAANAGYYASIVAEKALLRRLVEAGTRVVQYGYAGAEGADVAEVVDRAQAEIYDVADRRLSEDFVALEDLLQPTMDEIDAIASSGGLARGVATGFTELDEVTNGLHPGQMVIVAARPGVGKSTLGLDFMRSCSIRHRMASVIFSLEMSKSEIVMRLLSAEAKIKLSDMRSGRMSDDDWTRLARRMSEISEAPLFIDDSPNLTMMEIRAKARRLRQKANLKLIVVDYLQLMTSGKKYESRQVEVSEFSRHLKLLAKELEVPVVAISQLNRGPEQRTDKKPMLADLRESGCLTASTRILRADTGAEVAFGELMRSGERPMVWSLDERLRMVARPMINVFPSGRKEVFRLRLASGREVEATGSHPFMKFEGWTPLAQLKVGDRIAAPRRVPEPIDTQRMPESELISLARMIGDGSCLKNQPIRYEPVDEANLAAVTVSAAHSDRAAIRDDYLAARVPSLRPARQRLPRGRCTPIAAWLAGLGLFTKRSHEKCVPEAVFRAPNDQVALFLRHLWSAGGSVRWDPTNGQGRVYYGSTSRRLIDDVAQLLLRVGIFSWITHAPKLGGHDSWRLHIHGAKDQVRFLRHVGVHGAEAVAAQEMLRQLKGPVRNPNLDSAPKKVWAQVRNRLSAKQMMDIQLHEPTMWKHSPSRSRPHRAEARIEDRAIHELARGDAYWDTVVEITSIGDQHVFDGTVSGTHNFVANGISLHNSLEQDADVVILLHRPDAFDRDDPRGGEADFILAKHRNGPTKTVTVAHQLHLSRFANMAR
Kind of test: DnaB intein splicing inhibitors, dose response, biochemical, cell-free fluorescence (AID 449749). The test is classed as functional.

Test [7] addresses T4, Fatty acid synthase (Homo sapiens, UniProt P49327). Kind of test: inhibition of human FAS-TE enzyme activity – biochemical, endpoint fluorescence intensity, uHTS hits, dose response (AID 624327).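 Further: fluorescence from hydrolysis of an O-methyl fluorescein acyl ester substrate by the enzyme.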 The class given is functional.
For test [8], the target named is Envelope glycoprotein gp160 (Human immunodeficiency virus 1, UniProt Q6QLK5). Kind of test: cell-free HIV fusion peptide-binding blockers – biochemical, uHTS, fluorescence dequenching, […] (AID 1986).
The target in test [9] is T4, Fatty acid synthase. Kind of test: inhibition of human FAS-TE enzyme activity – biochemical, kinetic fluorescence intensity, dose response (AID 624326).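 Further: rate of fluorescence rise from hydrolysis of a fluorogenic O-methyl fluorescein ester substrate.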 The class given is functional.
The target in another test is Prothrombin (Bos taurus, UniProt P00735). Description: thrombin protease inhibitors – biochemical, fluorescence polarization, uHTS hits, dose response (AID 602369). The test is classed as functional.
A further test has as its target T5, Streptokinase A (Streptococcus pyogenes serotype M1, UniProt P10520).
T5 sequence (P10520 whole entry): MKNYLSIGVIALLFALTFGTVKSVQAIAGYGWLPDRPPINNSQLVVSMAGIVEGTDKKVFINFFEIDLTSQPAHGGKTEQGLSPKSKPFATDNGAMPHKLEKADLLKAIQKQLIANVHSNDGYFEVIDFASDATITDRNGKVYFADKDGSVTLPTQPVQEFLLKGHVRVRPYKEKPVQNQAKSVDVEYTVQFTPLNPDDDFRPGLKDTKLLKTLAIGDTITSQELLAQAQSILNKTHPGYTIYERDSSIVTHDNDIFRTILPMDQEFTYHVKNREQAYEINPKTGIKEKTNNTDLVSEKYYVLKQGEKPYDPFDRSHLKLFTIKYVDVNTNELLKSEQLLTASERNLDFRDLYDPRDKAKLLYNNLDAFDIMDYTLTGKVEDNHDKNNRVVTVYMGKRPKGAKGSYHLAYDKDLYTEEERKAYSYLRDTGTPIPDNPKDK
Description: viability-normalized secreted streptokinase activity reduction – plasminogen activation absorbance, OD405, dose response (AID 1914).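 Further: secreted streptokinase activity via plasminogen activation per viability signal from cell pellet.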 The class given is functional, Streptococcus pyogenes M1 GAS.

The target in the next test is Beta-galactosidase (Escherichia coli, UniProt Q8VNN2). Description: detection-enzyme interference by beta-gal modulators – biochemical, E. coli enzyme, set 3, artefact control for CCR6 antagonist project, dose response (AID 504712). The test is classed as functional.
Test [10] concerns the target T6, Ubiquitin-conjugating enzyme E2 N (Homo sapiens, UniProt P61088).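 Further: Dose-response confirmation in a TR-FRET assay detecting UBC13-driven polyubiquitin chain formation, inhibition measured.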
T6 sequence (P61088 whole entry): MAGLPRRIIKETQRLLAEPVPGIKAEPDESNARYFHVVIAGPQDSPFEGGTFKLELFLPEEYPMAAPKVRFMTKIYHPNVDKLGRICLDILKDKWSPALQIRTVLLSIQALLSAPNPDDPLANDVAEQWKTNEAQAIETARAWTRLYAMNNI
The class given is functional.

Test [11] in a line: Luminescence Cell-Based Dose Retest to Confirm Inhibitors of Cancer Stem Cells. [Related pubchem assays (depositor defined):AID2717, AID2721]. Conditions: Homo sapiens. The class given is functional.
Test [12] concerns the target T7, C-C chemokine receptor type 6 (Homo sapiens, UniProt P51684).
T7 sequence (P51684 whole entry): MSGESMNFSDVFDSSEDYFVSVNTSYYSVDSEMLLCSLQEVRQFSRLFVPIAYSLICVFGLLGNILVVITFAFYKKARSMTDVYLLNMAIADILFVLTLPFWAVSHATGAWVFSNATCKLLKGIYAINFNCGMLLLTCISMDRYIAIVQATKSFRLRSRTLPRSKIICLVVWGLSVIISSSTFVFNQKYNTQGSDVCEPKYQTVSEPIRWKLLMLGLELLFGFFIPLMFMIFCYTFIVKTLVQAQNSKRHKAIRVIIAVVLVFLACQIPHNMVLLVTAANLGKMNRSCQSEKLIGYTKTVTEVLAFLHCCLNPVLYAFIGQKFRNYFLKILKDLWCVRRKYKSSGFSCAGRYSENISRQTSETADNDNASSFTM
Description: antagonism of CCR6 beta-arrestin recruitment – cell-based, luminescent beta-arrestin readout, dose response (AID 504728). The class given is functional. On the technique in general: Activated receptors often draw arrestin, which recruitment assays turn into a signal.

For test [13], the target named is G-protein coupled receptor 55 (Homo sapiens, UniProt Q9Y2T6). Kind of test: inhibition of LPI-stimulated GPR55 beta-arrestin translocation – imaging, U2OS, beta-arrestin-GFP, LPI agonist, primary screen (AID 2013).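 Further: antagonist potency measured as reduced agonist-driven arrestin aggregation.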 The test is classed as functional.
Another test has as its target Integrin alpha-4 (Homo sapiens, UniProt P13612). Kind of test: allosteric modulators of alpha4 integrin VLA-4 – cell-based, LIBS antibody binding, flow cytometry, SAR follow-up (AID 488791). The test is classed as functional.
Another test has as its target Melanocortin receptor 4 (Homo sapiens, UniProt P32245). The test is classed as functional, cell-based.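 Further: Cell-based assay with luminescence read-out, confirmatory dose-response testing for agonist activity of biased ligands at MC4R; human U2OS cells with tagged receptor and beta-arrestin; potency of agonists that increase receptor coupling to beta-arrestin.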
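Wherever CC50 is given: cells exposed to compound for 72 hours before luminescence readout.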

T4 sequence (P49327 whole entry, the tested form may be a part): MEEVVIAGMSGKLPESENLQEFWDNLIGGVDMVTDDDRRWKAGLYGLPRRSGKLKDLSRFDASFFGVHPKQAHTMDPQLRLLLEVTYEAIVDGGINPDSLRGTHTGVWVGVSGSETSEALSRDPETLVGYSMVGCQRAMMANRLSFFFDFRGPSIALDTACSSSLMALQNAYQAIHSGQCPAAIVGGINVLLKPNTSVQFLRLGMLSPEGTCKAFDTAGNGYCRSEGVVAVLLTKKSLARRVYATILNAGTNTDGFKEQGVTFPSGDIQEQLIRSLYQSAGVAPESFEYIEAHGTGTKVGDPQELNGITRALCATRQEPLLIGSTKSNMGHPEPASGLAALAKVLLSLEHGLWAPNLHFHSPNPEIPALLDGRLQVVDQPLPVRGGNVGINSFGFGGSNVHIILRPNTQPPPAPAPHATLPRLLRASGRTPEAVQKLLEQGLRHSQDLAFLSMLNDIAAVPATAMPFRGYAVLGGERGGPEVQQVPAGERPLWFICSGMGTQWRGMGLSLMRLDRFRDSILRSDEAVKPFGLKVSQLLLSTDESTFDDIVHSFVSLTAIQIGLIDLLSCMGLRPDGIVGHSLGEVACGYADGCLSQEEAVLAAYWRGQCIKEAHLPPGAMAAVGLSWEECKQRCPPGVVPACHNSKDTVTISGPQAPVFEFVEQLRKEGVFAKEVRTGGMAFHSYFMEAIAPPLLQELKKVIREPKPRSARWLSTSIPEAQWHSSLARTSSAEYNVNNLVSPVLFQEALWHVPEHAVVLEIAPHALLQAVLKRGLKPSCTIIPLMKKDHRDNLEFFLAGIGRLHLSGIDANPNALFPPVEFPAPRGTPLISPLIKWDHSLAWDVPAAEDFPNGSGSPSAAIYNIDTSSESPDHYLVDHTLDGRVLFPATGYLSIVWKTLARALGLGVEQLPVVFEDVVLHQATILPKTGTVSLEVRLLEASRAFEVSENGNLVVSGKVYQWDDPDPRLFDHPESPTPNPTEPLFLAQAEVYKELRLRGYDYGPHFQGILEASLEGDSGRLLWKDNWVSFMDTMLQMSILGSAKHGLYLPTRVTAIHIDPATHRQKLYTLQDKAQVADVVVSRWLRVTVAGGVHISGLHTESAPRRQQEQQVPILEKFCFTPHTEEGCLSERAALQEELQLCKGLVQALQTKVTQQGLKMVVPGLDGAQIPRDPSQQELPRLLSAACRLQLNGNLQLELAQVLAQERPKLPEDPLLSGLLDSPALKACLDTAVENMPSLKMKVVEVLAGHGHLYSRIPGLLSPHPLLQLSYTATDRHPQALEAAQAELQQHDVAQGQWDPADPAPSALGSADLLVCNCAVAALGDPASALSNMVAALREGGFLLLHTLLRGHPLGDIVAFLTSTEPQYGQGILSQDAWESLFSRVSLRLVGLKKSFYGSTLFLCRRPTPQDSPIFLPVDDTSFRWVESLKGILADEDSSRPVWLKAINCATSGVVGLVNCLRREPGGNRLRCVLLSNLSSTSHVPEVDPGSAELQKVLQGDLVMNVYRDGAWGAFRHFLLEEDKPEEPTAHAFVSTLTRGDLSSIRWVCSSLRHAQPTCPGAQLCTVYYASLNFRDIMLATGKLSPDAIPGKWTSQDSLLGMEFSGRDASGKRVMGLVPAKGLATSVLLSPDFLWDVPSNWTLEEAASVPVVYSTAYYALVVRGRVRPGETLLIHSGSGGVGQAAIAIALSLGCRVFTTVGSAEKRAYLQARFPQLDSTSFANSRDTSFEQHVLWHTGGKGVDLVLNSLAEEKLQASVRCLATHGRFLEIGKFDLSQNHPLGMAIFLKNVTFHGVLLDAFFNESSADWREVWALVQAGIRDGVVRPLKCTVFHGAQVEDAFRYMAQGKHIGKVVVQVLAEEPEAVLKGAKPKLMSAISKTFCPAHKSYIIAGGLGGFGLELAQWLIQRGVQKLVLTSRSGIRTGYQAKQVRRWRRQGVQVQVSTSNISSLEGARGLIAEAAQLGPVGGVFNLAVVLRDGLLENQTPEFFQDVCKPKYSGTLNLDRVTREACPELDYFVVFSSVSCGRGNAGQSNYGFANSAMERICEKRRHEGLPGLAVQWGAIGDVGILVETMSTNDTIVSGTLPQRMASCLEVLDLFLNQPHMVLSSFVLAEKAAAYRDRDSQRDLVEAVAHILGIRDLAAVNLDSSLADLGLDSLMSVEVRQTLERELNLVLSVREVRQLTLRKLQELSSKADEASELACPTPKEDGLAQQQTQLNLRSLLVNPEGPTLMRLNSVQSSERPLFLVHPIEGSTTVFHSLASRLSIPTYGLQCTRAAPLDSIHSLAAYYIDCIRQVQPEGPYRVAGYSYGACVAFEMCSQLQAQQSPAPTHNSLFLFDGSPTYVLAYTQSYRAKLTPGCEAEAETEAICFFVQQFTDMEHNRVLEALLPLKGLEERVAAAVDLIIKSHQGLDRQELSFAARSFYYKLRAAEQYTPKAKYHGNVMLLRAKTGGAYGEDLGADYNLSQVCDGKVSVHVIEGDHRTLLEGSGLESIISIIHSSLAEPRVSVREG
Chain of Envelope glycoprotein gp160 (Q6QLK5 whole entry, the tested form may be a part): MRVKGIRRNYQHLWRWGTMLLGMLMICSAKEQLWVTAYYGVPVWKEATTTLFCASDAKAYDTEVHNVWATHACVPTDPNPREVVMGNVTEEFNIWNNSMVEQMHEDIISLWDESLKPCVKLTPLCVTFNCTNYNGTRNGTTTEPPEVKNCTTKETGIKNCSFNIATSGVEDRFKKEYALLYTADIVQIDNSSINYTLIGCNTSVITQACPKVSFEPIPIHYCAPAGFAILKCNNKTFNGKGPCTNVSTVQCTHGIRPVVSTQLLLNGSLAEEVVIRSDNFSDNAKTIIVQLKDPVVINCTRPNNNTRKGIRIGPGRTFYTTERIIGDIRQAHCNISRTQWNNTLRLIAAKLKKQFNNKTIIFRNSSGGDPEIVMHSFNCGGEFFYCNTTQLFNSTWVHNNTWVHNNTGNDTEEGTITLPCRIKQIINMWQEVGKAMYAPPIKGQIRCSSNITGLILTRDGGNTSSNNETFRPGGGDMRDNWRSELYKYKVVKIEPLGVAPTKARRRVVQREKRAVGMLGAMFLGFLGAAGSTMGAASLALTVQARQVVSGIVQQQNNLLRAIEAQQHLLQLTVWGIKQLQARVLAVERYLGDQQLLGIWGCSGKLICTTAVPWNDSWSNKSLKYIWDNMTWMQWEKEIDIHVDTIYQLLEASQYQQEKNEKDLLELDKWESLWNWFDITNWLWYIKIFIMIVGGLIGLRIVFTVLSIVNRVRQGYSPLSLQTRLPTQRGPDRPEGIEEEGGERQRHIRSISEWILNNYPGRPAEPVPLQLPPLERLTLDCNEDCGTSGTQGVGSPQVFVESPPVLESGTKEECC
Chain of Beta-galactosidase (Q8VNN2 whole entry): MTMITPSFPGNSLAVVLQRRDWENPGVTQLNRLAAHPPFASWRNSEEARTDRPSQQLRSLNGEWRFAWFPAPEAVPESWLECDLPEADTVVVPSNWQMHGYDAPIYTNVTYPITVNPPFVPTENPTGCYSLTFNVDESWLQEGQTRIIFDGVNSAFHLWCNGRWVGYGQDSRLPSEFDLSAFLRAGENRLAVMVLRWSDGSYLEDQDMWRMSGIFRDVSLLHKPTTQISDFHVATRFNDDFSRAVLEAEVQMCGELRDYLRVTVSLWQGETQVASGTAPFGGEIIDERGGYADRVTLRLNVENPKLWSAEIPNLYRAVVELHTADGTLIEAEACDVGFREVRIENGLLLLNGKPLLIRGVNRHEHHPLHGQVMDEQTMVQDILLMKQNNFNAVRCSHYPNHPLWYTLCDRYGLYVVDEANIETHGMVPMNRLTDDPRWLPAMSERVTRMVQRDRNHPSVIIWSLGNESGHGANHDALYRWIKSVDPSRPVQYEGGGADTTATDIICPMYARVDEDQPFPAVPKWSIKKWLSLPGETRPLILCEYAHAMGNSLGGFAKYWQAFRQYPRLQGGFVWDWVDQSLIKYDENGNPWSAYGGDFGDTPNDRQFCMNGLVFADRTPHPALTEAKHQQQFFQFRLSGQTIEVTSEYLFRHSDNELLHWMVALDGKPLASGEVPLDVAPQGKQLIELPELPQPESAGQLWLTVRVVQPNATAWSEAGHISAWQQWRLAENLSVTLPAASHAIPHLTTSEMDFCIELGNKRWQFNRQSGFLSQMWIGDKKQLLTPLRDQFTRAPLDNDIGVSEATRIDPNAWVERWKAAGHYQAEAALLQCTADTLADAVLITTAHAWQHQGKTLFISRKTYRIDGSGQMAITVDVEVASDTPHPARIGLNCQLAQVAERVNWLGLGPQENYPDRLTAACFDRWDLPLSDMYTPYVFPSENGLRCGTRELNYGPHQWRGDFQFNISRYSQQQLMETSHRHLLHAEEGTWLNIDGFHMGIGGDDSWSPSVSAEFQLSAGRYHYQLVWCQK
Chain of G-protein coupled receptor 55 (Q9Y2T6 whole entry): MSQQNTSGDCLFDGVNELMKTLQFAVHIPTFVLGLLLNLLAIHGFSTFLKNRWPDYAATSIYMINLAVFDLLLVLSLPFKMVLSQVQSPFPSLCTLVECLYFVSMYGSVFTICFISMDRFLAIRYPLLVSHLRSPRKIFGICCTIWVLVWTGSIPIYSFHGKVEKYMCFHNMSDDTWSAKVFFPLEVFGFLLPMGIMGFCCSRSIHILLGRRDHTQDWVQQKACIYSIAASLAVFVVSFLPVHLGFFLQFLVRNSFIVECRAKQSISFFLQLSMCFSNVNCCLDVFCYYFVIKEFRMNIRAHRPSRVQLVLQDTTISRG
Chain of Melanocortin receptor 4 (P32245 whole entry): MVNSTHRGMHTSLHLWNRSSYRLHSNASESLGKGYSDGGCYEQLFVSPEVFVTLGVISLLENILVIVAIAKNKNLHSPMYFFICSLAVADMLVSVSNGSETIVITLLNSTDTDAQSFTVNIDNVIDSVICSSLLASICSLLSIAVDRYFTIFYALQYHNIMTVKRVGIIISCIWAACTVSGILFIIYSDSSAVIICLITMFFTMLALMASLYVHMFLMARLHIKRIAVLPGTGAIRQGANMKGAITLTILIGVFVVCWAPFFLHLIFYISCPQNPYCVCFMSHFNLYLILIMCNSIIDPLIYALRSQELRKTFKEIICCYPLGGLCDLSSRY

In general, IC50 refers to the concentration that inhibits the measured activity by half. In general, EC50 refers to the concentration giving half of the maximal effect. `COc1ccc(Cn2c(C3CC3)nc3ccc(NC(=O)C4CC4)cc3c2=O)cc1`: the IC50 on Coagulation factor XII was > 50 µM (inactive). Moreover, in the test on H4, the EC50 was 0.679 µM (active).

In general, CC50 refers to the concentration that lowers cell viability or growth by half. As usually defined, the AC50 is the concentration at which the activity in the assay is half-maximal. Consider `O=C1NC(=S)N(C2CCCCC2)C(=O)/C1=C/NNC(=O)c1ccccc1O`, for which the CC50 in test [1] was 31.2 µM (active). The IC50 in [2] was 33.7 µM (active); in test [3] it was 36.7 µM (active); in test [5] it was > 100 µM (inactive); at Fatty acid synthase [7], 31.1 µM (inactive); in [8], 17.7 µM (active); at Fatty acid synthase [9], 18.2 µM (active). Further, the IC50 at Prothrombin was 93.6 µM (active). For the same compound, the EC50 was 0.725 µM (active) in test [4], 2.18 µM (active) with Streptococcus and 4.6 µM (active) on Protein RecA. Besides, the AC50 in test [6] is 3.25 µM (active).

Turning to `Cc1c(CCOC(=O)C2C3CC4CC(C3)CC2C4)sc[n+]1CC(=O)c1ccc(Br)cc1` (stereo not given), the EC50 at Streptokinase A is 21.9 µM (active); in [4], 8.85 µM (active); in the test with Streptococcus it was > 150 µM (not active). The IC50 at Beta-galactosidase was > 66.6 µM (inactive); in [10], > 20 µM (inactive); in test [12], 27 µM (inactive); in test [13] it was 3.25 µM (active). For the same compound, the AC50 in [11] was 2.17 µM (active).

In the case of `c1ccc(-c2sc3ccccc3c2-c2ccc(OCCN3CCCC3)cc2)cc1`, the AC50 in test [11] is 2.21 µM (active). Also, the values for the EC50 on Integrin alpha-4 and on Melanocortin receptor 4 were 26.1 µM (active) and > 89.2 µM (inactive), respectively.
